Experimental data reported in patent US5453518A, “Flavone derivatives” (Recordati S.A., Chemical and Pharmaceutical Company, priority 1992, dated 1995).
Where two headings read alike, the source gives them in different places.

Key:
[1] = in words, background; cited from earlier work
[2] = tested on: rat bladder (K^+ -induced contractions); test: Inhibition of K^+ -induced rat bladder contractions; set-up: species or system rat (male Sprague Dawley); details: 0.5 h, KCl 80 mM, 30 min after drug, isolated rat bladder
Procedure: Female Albino Swiss mice [Crl: CD-1 (ICR) BR] with a body weight of 20-30 g and male Sprague Dawley rats [Crl: CD° BR] with a body weight of 200-300 g, from the Charles River Farm, Italy, were used for the trials. The animals were housed with free access to food and water and kept on a forced light-darkness cycle at 22°-24° C. until the day of the trials. Male rats were killed by a blow on their heads and their lower abdomens were opened along the midlines. Their urinary bladders were removed by a transverse dissection above the trigone and cut into two fragments (20-30 mm long, 1-2 mm wide). Each fragment was suspended in an isolated organ bath containing 10 ml of a normal Tyrode solution (composition in mM: NaCl 137, KCl 2.68, MgCl2 1.11, CaCl2 1.8, NaH2 PO4 0.41, NaHCO3 11.9, glucose 5.55) and connected, under a steady 1 g load, to an isometric transducer (DY-1, Basile). The solution was gassed with a mixture of 95% O2 and 5% CO2 and heated at 37° C. After a 60 minute equilibration the tension responses to a single KCl dose (Bath concentration=80 mM) inducing phasic and tonic contractions were measured under isometric conditions at 30 minute intervals. After recording one or more reproducible responses, a solution of the test drug was added to the bath (final concentration from 10^-4 to 10^-9 M) and 30 minutes later a new contraction was induced. The experimental groups were made up of at least 2 preparations from different animals for each drug concentration tested. The IC50 values of the inhibition of the agonist-induced contractions were evaluated by linear regression analysis.

[3] = in words, background; cited from earlier work; remark: listed apart in the source

Cc1c(-c2ccccc2)oc2c(C(=O)OCCN3CCCCC3)cccc2c1=O [Flavoxate, 8-(2-(N-piperidino)ethoxycarbonyl)-3-methyl-4-oxo-2-phenyl-4H-1-benzopyran, reference compound]
anticholinergic effects [1]: practical absence of anticholinergic effects | IC50 ([2]; phasic contraction, read-out: IC50, inhibition of K^+ -induced rat bladder contractions, Phasic): 13 µM | IC50 ([2]; tonic contraction, read-out: IC50, inhibition of K^+ -induced rat bladder contractions, Tonic): 13 µM | stability in physiological fluids [3]: low stability in physiological fluids
